Target: T1, full-length recombinant human NEK7 (Homo sapiens, UniProt Q8TDX7)
T1 construct: full-length recombinant human NEK7; GST (N); purchased SignalChem NO9-10G; host or cells: Sf9 insect cells (baculovirus)
Experiment: NEK7 enzymatic assay
Assay type: biochemical
Conditions: recombinant human NEK7, casein substrate, radiolabelled ATP
Experimental: Casein substrate (from bovine milk, hydrolyzed and partially dephosphorylated mixture of α, β and κ caseins, obtained from Sigma Aldrich, catalogue #C4765, diluted in distilled water to a final concentration of 1 mg/mL) and full-length recombinant human NEK7 (expressed by baculovirus in Sf9 insect cells using a N-terminal GST tag, obtained from SignalChem, catalogue #NO9-10G, 0.1 μg/μL) were mixed in assay buffer (20 mM Hepes pH 7.5, 10 mM MgCl2, 1 mM EGTA, 0.02% Brij35, 0.02 mg/ml BSA, 0.1 mM Na3VO4, 2 mM DTT, 1% DMSO). Compounds of interest (serial 3-fold dilution in DMSO from 10 μM to 0.5 nM) or vehicle (1% DMSO) were dispensed into the kinase reaction mixture by Acoustic technology (Echo550; nanoliter range). After incubation at room temperature for 20 minutes, the kinase reaction was initiated by addition of [^33P]-ATP (specific activity 10 μCi/μl) and the mixture was incubated at room temperature for 2 hours. The reaction was then stopped by spotting the reaction mixture on strips of phosphocellulose P81 paper. Following washing, the radioactivity of the P81 paper was measured and kinase activity data were expressed as the percent remaining kinase activity in test samples compared to vehicle reactions. IC50 values and curve fits were obtained using Prism (GraphPad Software).
Casein substrate (from bovine milk, hydrolyzed and partially dephosphorylated mixture of α, β and κ caseins, obtained from Sigma Aldrich, catalogue #C4765, diluted in distilled water to a final concentration of 1 mg/mL, assay concentration 20 μM) and full-length recombinant human Nek7 (expressed by baculovirus in Sf9 insect cells using a N-terminal GST tag, obtained from SignalChem, catalogue #NO9-10G, 0.1 μg/μL, assay concentration 70 nM) were mixed in assay buffer (20 mM Hepes pH 7.5, 10 mM MgCl2, 1 mM EGTA, 0.02% Brij35, 0.02 mg/ml BSA, 0.1 mM […], 2 mM DTT, 1% DMSO). Compounds of interest (in DMSO, serial 3-fold dilution from 10 μM to 0.5 nM) or control (1% DMSO) were dispensed into the kinase reaction mixture by Acoustic technology (Echo550; nanoliter range). After incubation at room temperature for 20 minutes, the kinase reaction was initiated by addition of [^32P]-ATP (Specific activity 10 μCi/μl) and the mixture was incubated at room temperature for 2 hours. The reaction was then stopped by spotting the reaction mixture on strips of phosphocellulose P81 paper. Following washing, the radioactivity of the P81 paper was measured and kinase activity data were expressed as the percent remaining kinase activity in test samples compared to vehicle (dimethyl sulfoxide) reactions. IC50 values and curve fits were obtained using Prism (GraphPad Software).

T1 sequence (Q8TDX7 whole entry): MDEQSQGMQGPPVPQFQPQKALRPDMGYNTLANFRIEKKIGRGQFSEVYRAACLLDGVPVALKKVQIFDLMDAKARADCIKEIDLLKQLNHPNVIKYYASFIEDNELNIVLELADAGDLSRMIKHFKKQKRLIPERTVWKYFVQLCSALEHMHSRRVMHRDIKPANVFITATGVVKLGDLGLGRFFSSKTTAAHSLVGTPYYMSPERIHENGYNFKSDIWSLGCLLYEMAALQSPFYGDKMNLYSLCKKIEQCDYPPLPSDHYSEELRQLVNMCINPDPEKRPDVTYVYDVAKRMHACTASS

Compound	IC50
CN1CCC(Cc2ccc(NC(=O)Nc3ccc(-c4cn(C5CC5)c5ncnc(N)c45)cc3F)cc2C(F)(F)F)CC1 [Example I-11, 1-(4-(4-amino-7-cyclopropyl-7H-pyrrolo[2,3-d]pyrimidin-5-yl)-2-fluorophenyl)-3-(4-((1-methylpiperidin-4-yl)methyl)-3-(trifluoromethyl)phenyl)urea]	> 2000 nM
CC1CN(C)CCN1Cc1ccc(NC(=O)Nc2ccc(-c3cn(C4CC4)c4ncnc(N)c34)cc2F)cc1C(F)(F)F (stereo not shown) [Example I-70, 1-(4-(4-amino-7-cyclopropyl-7H-pyrrolo[2,3-d]pyrimidin-5-yl)-2-fluorophenyl)-3-(4-((2,4-dimethylpiperazin-1-yl)methyl)-3-(trifluoromethyl)phenyl)urea]	100 to 500 nM
CN1CCN(Cc2ccc(NC(=O)Nc3ncc(-c4cn(C5CC5)c5ncnc(N)c45)cc3F)cc2C(F)(F)F)CC1 [Example I-67, 1-(5-(4-amino-7-cyclopropyl-7H-pyrrolo[2,3-d]pyrimidin-5-yl)-3-fluoropyridin-2-yl)-3-(4-((4-methylpiperazin-1-yl)methyl)-3-(trifluoromethyl)phenyl)urea]	100 to 500 nM
Cc1cc(NC(=O)Nc2ccc(-c3nn(C4COC4)c4ncnc(N)c34)cc2)ccc1N1CCOCC1 [Example I-23, 1-(4-(4-amino-1-(oxetan-3-yl)-1H-pyrazolo[3,4-d]pyrimidin-3-yl)phenyl)-3-(3-methyl-4-morpholinophenyl)urea]	> 2000 nM
Cc1cc(NC(=O)Nc2ccc(-c3nn(C(C)C)c4ncnc(N)c34)cc2)ccc1N1CCOCC1 [Example I-22, 1-(4-(4-amino-1-isopropyl-1H-pyrazolo[3,4-d]pyrimidin-3-yl)phenyl)-3-(3-methyl-4-morpholinophenyl)urea]	100 to 500 nM
CN1CC2CCC(C1)N2Cc1ccc(NC(=O)Nc2ccc(-c3cn(C4CC4)c4ncnc(N)c34)cc2F)cc1C(F)(F)F [Example I-4, 1-(4-(4-amino-7-cyclopropyl-7H-pyrrolo[2,3-d]pyrimidin-5-yl)-2-fluorophenyl)-3-(4-((3-methyl-3,8-diazabicyclo[3.2.1]octan-8-yl)methyl)-3-(trifluoromethyl)phenyl)urea]	100 to 500 nM
Nc1ncnc2c1c(-c1ccc(NC(=O)Nc3ccc(CN4CCN(S(=O)(=O)C5CC5)CC4)c(C(F)(F)F)c3)c(F)c1)cn2C1CC1 [Example I-97, 1-(4-(4-amino-7-cyclopropyl-7H-pyrrolo[2,3-d]pyrimidin-5-yl)-2-fluorophenyl)-3-(4-((4-(cyclopropylsulfonyl)piperazin-1-yl)methyl)-3-(trifluoromethyl)phenyl)urea]	500 to 2000 nM
CN1CC2CCC1CN2Cc1ccc(NC(=O)Nc2ccc(-c3cn(C4CC4)c4ncnc(N)c34)cc2F)cc1C(F)(F)F (stereo not shown) [Example I-9, 1-(4-(4-amino-7-cyclopropyl-7H-pyrrolo[2,3-d]pyrimidin-5-yl)-2-fluorophenyl)-3-(4-((5-methyl-2,5-diazabicyclo[2.2.2]octan-2-yl)methyl)-3-(trifluoromethyl)phenyl)urea]	100 to 500 nM
Nc1ncnc2c1c(-c1ccc(NC(=O)Nc3ccc(CN4CCN(C5COC5)CC4)c(C(F)(F)F)c3)c(F)c1)cn2C1CC1 [Example I-86, 1-(4-(4-amino-7-cyclopropyl-7H-pyrrolo[2,3-d]pyrimidin-5-yl)-2-fluorophenyl)-3-(4-((4-(oxetan-3-yl)piperazin-1-yl)methyl)-3-(trifluoromethyl)phenyl)urea]	100 to 500 nM
CN1CCN(Cc2ccc(NC(=O)Nc3ccc(-c4nn(C5CC5)c5ncnc(N)c45)cn3)cc2C(F)(F)F)CC1 [Example I-30, 1-(5-(4-amino-1-cyclopropyl-1H-pyrazolo[3,4-d]pyrimidin-3-yl)pyridin-2-yl)-3-(4-((4-methylpiperazin-1-yl)methyl)-3-(trifluoromethyl)phenyl)urea]	100 to 500 nM
CNC1CCN(Cc2ccc(NC(=O)Nc3ccc(-c4cn(C5CC5)c5ncnc(N)c45)cc3F)cc2C(F)(F)F)CC1 [Example I-74, 1-(4-(4-amino-7-cyclopropyl-7H-pyrrolo[2,3-d]pyrimidin-5-yl)-2-fluorophenyl)-3-(4-((4-(methylamino)piperidin-1-yl)methyl)-3-(trifluoromethyl)phenyl)urea]	100 to 500 nM
CN1CCN(Cc2ccc(NC(=O)Nc3ccc(-c4cn(C5CC5)c5ncnc(N)c45)cc3F)cc2C(F)(F)F)C2(CC2)C1 [Example I-8, 1-(4-(4-amino-7-cyclopropyl-7H-pyrrolo[2,3-d]pyrimidin-5-yl)-2-fluorophenyl)-3-(4-((7-methyl-4,7-diazaspiro[2.5]octan-4-yl)methyl)-3-(trifluoromethyl)phenyl)urea]	100 to 500 nM
Nc1ncnc2c1c(-c1ccc(NC(=O)Nc3ccc(OC4CCN(C5COC5)CC4F)c(C(F)(F)F)c3)c(F)c1)cn2C1CC1 (single isomer, unassigned) [Example I-91, 1-(4-(4-amino-7-cyclopropyl-7H-pyrrolo[2,3-d]pyrimidin-5-yl)-2-fluorophenyl)-3-(4-((3-fluoro-1-(oxetan-3-yl)piperidin-4-yl)oxy)-3-(trifluoromethyl)phenyl)urea]	100 to 500 nM

Further lines, results first:

IC50	Compound
100 to 500 nM	CN1C[C@@H]2CN(Cc3ccc(NC(=O)Nc4ccc(-c5cn(C6CC6)c6ncnc(N)c56)cc4F)cc3C(F)(F)F)C[C@@H]2C1 [Example I-5, 1-(4-(4-amino-7-cyclopropyl-7H-pyrrolo[2,3-d]pyrimidin-5-yl)-2-fluorophenyl)-3-(4-(((3aR,6aS)-5-methylhexahydropyrrolo[3,4-c]pyrrol-2(1H)-yl)methyl)-3-(trifluoromethyl)phenyl)urea]
< 100 nM	CN1CCN(Cc2cc(NC(=O)Nc3ccc(-c4cn(C5CC5)c5ncnc(N)c45)cc3F)cc(C(F)(F)F)c2)CC1 [Example I-93, 1-(4-(4-amino-7-cyclopropyl-7H-pyrrolo[2,3-d]pyrimidin-5-yl)-2-fluorophenyl)-3-(3-((4-methylpiperazin-1-yl)methyl)-5-(trifluoromethyl)phenyl)urea]
< 100 nM	CN1CCN(Cc2ccc(NC(=O)Nc3ccc(-c4cn(CCO)c5ncnc(N)c45)cc3F)cc2C(F)(F)F)CC1 [Example I-71, 1-(4-(4-amino-7-(2-hydroxyethyl)-7H-pyrrolo[2,3-d]pyrimidin-5-yl)-2-fluorophenyl)-3-(4-((4-methylpiperazin-1-yl)methyl)-3-(trifluoromethyl)phenyl)urea]
< 100 nM	CC(C)n1cc(-c2ccc(NC(=O)Nc3ccc(CN4CCN(C)CC4)c(C(F)(F)F)c3)c(F)c2)c2c(N)ncnc21 [Example I-105, 1-(4-(4-amino-7-isopropyl-7H-pyrrolo[2,3-d]pyrimidin-5-yl)-2-fluorophenyl)-3-(4-((4-methylpiperazin-1-yl)methyl)-3-(trifluoromethyl)phenyl)urea]
< 100 nM	CCN1CCN(Cc2ccc(NC(=O)Nc3ccc(-c4cn(C5CC5)c5ncnc(N)c45)cc3F)cc2C(F)(F)F)CC1 [Example I-41, 1-(4-(4-amino-7-cyclopropyl-7H-pyrrolo[2,3-d]pyrimidin-5-yl)-2-fluorophenyl)-3-(4-((4-ethylpiperazin-1-yl)methyl)-3-(trifluoromethyl)phenyl)urea]
< 100 nM	CN(C)C1CCN(Cc2ccc(NC(=O)Nc3ccc(-c4cn(C5CC5)c5ncnc(N)c45)cc3F)cc2C(F)(F)F)CC1 [Example I-69]
< 100 nM	CN1CCN(Cc2ccc(NC(=O)Nc3ccc(-c4cn(C5CC5)c5ncnc(N)c45)cn3)cc2C(F)(F)F)CC1 [Example I-14, 1-(5-(4-amino-7-cyclopropyl-7H-pyrrolo[2,3-d]pyrimidin-5-yl)pyridin-2-yl)-3-(4-((4-methylpiperazin-1-yl)methyl)-3-(trifluoromethyl)phenyl)urea]
< 100 nM	CN1CC2CC1CN2Cc1ccc(NC(=O)Nc2ccc(-c3cn(C4CC4)c4ncnc(N)c34)cc2F)cc1C(F)(F)F (stereo not shown) [Example I-64, 1-(4-(4-amino-7-cyclopropyl-7H-pyrrolo[2,3-d]pyrimidin-5-yl)-2-fluorophenyl)-3-(4-((5-methyl-2,5-diazabicyclo[2.2.1]heptan-2-yl)methyl)-3-(trifluoromethyl)phenyl)urea]
< 100 nM	CN1CCN(Cc2ccc(NC(=O)Nc3ccc(-c4cn(CCC(=O)O)c5ncnc(N)c45)cc3F)cc2C(F)(F)F)CC1 [Example I-106, 3-(4-amino-5-(3-fluoro-4-(3-(4-((4-methylpiperazin-1-yl)methyl)-3-(trifluoromethyl)phenyl)ureido)phenyl)-7H-pyrrolo[2,3-d]pyrimidin-7-yl)propanoic acid]
